We go through nine compounds from article PMC6155852, “Oral Administration of the Japanese Traditional Medicine Keishibukuryogan-ka-yokuinin Decreases Reactive Oxygen Metabolites in Rat Plasma: Identification of Chemical Constituents Contributing to Antioxidant Activity” (Molecules : A Journal of Synthetic Chemistry and Natural …, 2017).

The structures appear in SMILES notation. Several values for one entry are separate records, joined by “and”; a condition that tells them apart may be missing. Equal entries are not always repeated. Where two headings read alike, the source gives them in different places.

Data set [1] in a line: Plasma pharmacokinetics of KBGY constituents in rats after single oral administration of KBGY. The data set is classed as in vivo, rat. As to the method:
KBGY prepared in water was administered orally to 16 h fasted rats at a dose of 2 g/10 mL/kg (n = 3). […] Plasma was obtained by centrifugation at 1700× g for 15 min at 4 °C and stored at −80 °C until analysis.
For quantification of the dicarboxylic acid, 50 µL of standard solution, 100 µL of acetic acid (2%, v/v), and 650 µL of ethyl acetate were added to 200 µL of plasma samples, followed by mixing and centrifugation (7000× g, 5 min). The supernatants were collected and dried with a centrifugal evaporator and concentration system (CC-105; TOMY SEIKO Co., Tokyo, Japan). The residue was dissolved with 100 µL acetonitrile and 50 µL BF3/butanol solution; the dissolved solution was incubated for 1 h at 60 °C. The reaction was terminated by the addition of 50 µL of water and hexane, 150 µL of a saturated solution of sodium chloride, and 400 µL of hexane. The solution was vortexed for 2 min, and the supernatant was obtained by centrifugation (7000× g, 5 min). Liquid–liquid extraction was repeated twice. The corrected supernatant was dried with the centrifugal evaporator and concentration system. The dried residue was dissolved in 100 µL of acetonitrile containing 1 µg/mL of o-terphenyl (Tokyo Chemical Ind. Co.) as an internal standard (IS). Five microliters of the solution was then injected into the GC/MS system.
For quantification of volatile organic compounds (cinnamaldehyde, methyl cinnamate, 2-methoxycinnamaldehyde, mandelonitrile, salicylaldehyde, eugenol, cinnamyl alcohol, and 3-phenylpropyl acetate), 25 µL of standard solution, 25 µL of 2 µg/mL of 1,4-dibromobenzene (Tokyo Chemical Ind. Co.) as IS, and 500 µL of acetonitrile were added to 200 µL of plasma samples, followed by mixing and centrifugation (7000× g, 5 min). Five microliters of the supernatant was then injected into the GC/MS system.
For quantification of other compounds, 25 µL of standard solution, 25 µL of 2 ng/mL of atropine sulfate monohydrate (Wako Pure Chemical Ind.) or niflumic acid (Sigma-Aldrich) as IS, and 750 µL of methanol were added to 200 µL of plasma samples, followed by mixing and centrifugation (7000× g, 5 min). The supernatant was obtained and dried with the centrifugal evaporator and concentration system after 150 µL of propylene glycol (1%, v/v) was added to the supernatant. The dried residue was then dissolved in 60 μL of the HPLC mobile phase for each analytical method, and a 10 or 20 μL portion was injected into the LC/MS/MS system.
Plasma pharmacokinetic data were analyzed by noncompartmental modeling using Phoenix WinNonlin (version 6.3, Certara L.P., St. Louis, MO, USA) to determine various pharmacokinetic constants, including the maximum concentration (Cmax), time to maximum concentration (tmax), apparent elimination half-life (t1/2), and area under the plasma concentration-time curve from zero to last observation time (AUC0–last). The t1/2 was divided by loge^2/ke, where ke was the terminal elimination (at least three data points on the descending linear limb) rate constant.

Data set [2] can be described thus: Lipid hydroperoxide (LPO) generation assay (linoleic acid, Fenton reaction). The data set is classed as biochemical. The method, then: Antioxidant assays using linoleic acid with a purity of 98.0% (Wako Pure Chemical Ind.) were performed using a described protocol with modifications. Briefly, 20 μL of 1% linoleic acid in methanol, 20 μL of 20 mmol/L ferrous chloride in water, 20 μL of test sample in DMSO, and 150 μL of a mixed solution (1:1) of methanol and 20 mmol/L phosphate buffer (pH 7.0) were added to 96-well polypropylene plates. After incubation at room temperature in the dark for 1 h, 10 μL of the reaction products were transferred to 200 μL of a methanol solution containing 39 mmol/L ammonium thiocyanate, 0.2 mmol/L ferrous chloride, and 0.01 mol/L hydrochloride. After incubation for 15 min, absorbance at 500 nm was measured using a microplate reader (Multiskan GO, Thermo Fisher Scientific Inc., Waltham, MA, USA). The concentration of lipid hydroperoxide (LPO) products was calculated conveniently using standard curves of serially-diluted linolein hydroperoxides (Cayman Chemical). The percentage of control was calculated using the following formula; (A − B)/(C − B) × 100, with A = test sample, B = linoleic acid alone, and C = vehicle control. Ascorbic acid was used as a reference agent.

Data set [3] can be described thus: ROS scavenging assay (hydrogen peroxide-dependent oxidation). The data set is classed as biochemical. As to conditions: for Antioxidant Activity (% of Control) ROS Scavenge: C.I. = complete inhibition. As to the method:
Hydrogen peroxide-dependent oxidation tests were performed using Oxiselect™ In Vitro ROS/RNS Assay kits (Cellbiolab Inc., San Diego, CA, USA) according to the manufacturer’s protocol. Briefly, a test sample was mixed with hydrogen peroxide (final concentration: 2.5 μmol/L) and incubated for 5 min. A fluorescent reaction was started by the addition of a fluorescent probe (dichrolodihydrofluorescin-DiOxyQ) at room temperature. After incubation for 15 min, relative fluorescent units (RFUs) were measured at […] using a fluorescent plate reader (Infinite M200; Tecan Trading AG, Männedorf, Switzerland). The percentage of control was calculated using the following formula; (A − B)/(C − B) × 100, with A = test sample, B = fluorescent probe alone, and C = vehicle control. (+)-Ascorbic acid was used as a reference agent.

Where [4] appears, read: 10 μmol/L, more than 100% = no activity.
[5] abbreviates: in vivo, rat plasma, single oral KBGY 2 g/kg, read-out: AUC0–last.
[6] abbreviates: in vivo, rat plasma, single oral KBGY 2 g/kg, read-out: Cmax.
[7] abbreviates: in vivo, rat plasma, single oral KBGY 2 g/kg, read-out: tmax.

For orientation: Cmax means the highest concentration seen after dosing. For orientation: Tmax means the time from dosing to the highest level. On to `COc1c(O)cc(C(=O)O)cc1O` [4-O-Methylgallic acid], for which, in data set [1] (rat, in vivo, po, 2 g/kg), the AUC(0-t) came out at 479 ng·h/mL; the Cmax is 159 ng/mL and 863 nM; the Tmax stood at 60 min; the half-life is 54.4 min. For the same compound, the “Antioxidant Activity (% of Control) LPO Generation” value in data set [2] (setting [4]) is recorded as 105.4 ± 2.5 % of Control. In addition, in data set [3] (setting [4]), the “Antioxidant Activity (% of Control) ROS Scavenge” value is reported as 86.8 ± 0.2 % of Control.
With `N#C[C@H](O[C@@H]1O[C@H](CO)[C@@H](O)[C@H](O)[C@H]1O)c1ccccc1` [Prunasin], the AUC(0-t) in data set [1] (setting [5]) turned out to be 3700 ng·h/mL. Moreover, the Cmax in data set [1] (setting [6]) was 1450 ng/mL and 4.91 µM. For the same compound, the half-life in data set [1] (in vivo, rat plasma, single oral KBGY 2 g/kg, read-out: t1/2 (converted)) was 69.6 min. Also, the Tmax in data set [1] (setting [7]) stood at 60 min. Also, in data set [2] (setting [4]), the “Antioxidant Activity (% of Control) LPO Generation” value was 97.9 ± 3.3 % of Control. The “Antioxidant Activity (% of Control) ROS Scavenge” value in data set [3] (setting [4]) was 102.2 ± 1.1 % of Control.
Turning to `C[C@@]12C[C@@]3(O)O[C@@H](O1)[C@]1(COC(=O)c4ccccc4)[C@H]3C[C@@]12O[C@@H]1O[C@H](CO)[C@@H](O)[C@H](O)[C@H]1O` [Paeoniflorin], the Tmax in data set [1] (rat plasma, single oral KBGY 2 g/kg) came out at 30 min. In data set [1] (rat, in vivo, po, 2 g/kg), the AUC(0-t) worked out at 299 ng·h/mL; the Cmax was 80.2 ng/mL and 167 nM; the half-life was 163 min. In data set [2] (setting [4]), the “Antioxidant Activity (% of Control) LPO Generation” value is 92.7 ± 0.9 % of Control. Also, the “Antioxidant Activity (% of Control) ROS Scavenge” value in data set [3] (setting [4]) is 100.2 ± 1.4 % of Control.
For `COc1cc([C@H]2OC[C@H]3[C@@H]2CO[C@@H]3c2cc(OC)c(O)c(OC)c2)cc(OC)c1O` (racemic) [(±)-Syringaresinol], in data set [1] (rat, in vivo, po, 2 g/kg), the “AUC0–last” value stood at 0.0771 ng·h/mL. In data set [1] (rat, in vivo, po, 2 g/kg), the Tmax is 15 min. Besides, the “Antioxidant Activity (% of Control) LPO Generation” value is on record as 107.4 ± 4.2 % of Control in data set [2] (1 μmol/L); 68.4 ± 3.3 % of Control in data set [2] (setting [4]); “less than 80 % of Control” in data set [2] (10 μmol/L, more than 100% = no activity, listed as (±)-syringaresinol). Besides, the “Antioxidant Activity (% of Control) ROS Scavenge” value is reported as 39.4 ± 2.4 % of Control in data set [3] (1 μmol/L) and “C.I” in data set [3] (setting [4]). The anti-ROS activity result in data set [3] (10 μmol/L) was “strong anti-ROS activity”.
Turning to `N#CC(O)c1ccccc1` (centres unmarked) [Mandelonitrile], the AUC(0-t) in data set [1] (setting [5]) was 251 ng·h/mL. Also, the Cmax in data set [1] (setting [6]) was 165 ng/mL and 1.24 µM. Further, the time to peak (Tmax) in data set [1] (setting [7]) was 60 min. For the same compound, the “Antioxidant Activity (% of Control) LPO Generation” value in data set [2] (setting [4]) is listed as 104.6 ± 1.2 % of Control. The “Antioxidant Activity (% of Control) ROS Scavenge” value in data set [3] (setting [4]) is 99.7 ± 0.6 % of Control.
`O=C(O)CCCCCCCC(=O)O` [Azelaic acid]: in data set [1] (rat, in vivo, po, 2 g/kg), the AUC(0-t) was found to be 39.9 ng·h/mL; the Cmax was 54.7 ng/mL and 291 nM; the time to peak (Tmax) came out at 15 min. Further, in data set [2] (setting [4]), the “Antioxidant Activity (% of Control) LPO Generation” value was 97.9 ± 4.4 % of Control. In data set [3] (setting [4]), the “Antioxidant Activity (% of Control) ROS Scavenge” value is 100.4 ± 0.7 % of Control.
With `OC[C@H](Cc1cccc(O)c1)[C@H](CO)Cc1cccc(O)c1` [Enterodiol], in data set [1] (rat, in vivo, po, 2 g/kg), the AUC(0-t) amounted to 2.91 ng·h/mL; the maximum concentration (Cmax) is 1.03 ng/mL and 3 nM; the Tmax stood at 30 min; the half-life was 1640 min. For the same compound, in data set [2] (1 μmol/L), the “Antioxidant Activity (% of Control) LPO Generation” value is 95.2 ± 4.4 % of Control. Moreover, the “Antioxidant Activity (% of Control) LPO Generation” value in data set [2] (setting [4]) is reported as 84.9 ± 3.1 % of Control. Besides, the “Antioxidant Activity (% of Control) ROS Scavenge” value in data set [3] (1 μmol/L) is listed as 67.6 ± 2.4 % of Control. Also, in data set [3] (10 μmol/L), the anti-ROS activity entry was “strong anti-ROS activity”. Further, the “Antioxidant Activity (% of Control) ROS Scavenge” value in data set [3] (setting [4]) was “C.I”.
For the compound `O=C/C=C/c1ccccc1` [Cinnamaldehyde], in data set [1] (rat, in vivo, po, 2 g/kg), the AUC(0-t) amounted to 51.6 ng·h/mL; the Cmax is 11.5 ng/mL and 87 nM; the Tmax amounted to 60 min; the half-life is 313 min. The “Antioxidant Activity (% of Control) LPO Generation” value in data set [2] (setting [4]) is given as 109.8 ± 3.9 % of Control. For the same compound, the “Antioxidant Activity (% of Control) ROS Scavenge” value in data set [3] (setting [4]) is 103.8 ± 1.1 % of Control.
Usually IC50 stands for the concentration that gives 50% inhibition. High values mean weaker potency in that assay, low ones greater potency in that assay. With `O=C(O)c1cc(O)c(O)c(O)c1` [Gallic acid], the time of peak concentration (Tmax) in data set [1] (setting [7]) stood at 30 min. Further, in data set [1] (rat, in vivo, po, 2 g/kg), the AUC(0-t) stood at 172 ng·h/mL; the Cmax is 84.9 ng/mL and 499 nM; the half-life is 46.3 min. The “Antioxidant Activity (% of Control) LPO Generation” value in data set [2] (setting [4]) is listed as 74.0 ± 2.5 % of Control. Further, the “Antioxidant Activity (% of Control) LPO Generation” value in data set [2] (10 μmol/L, more than 100% = no activity, listed as gallic acid) is “less than 80 % of Control”. In data set [2] (3 and 10 μmol/L, Figure 4), the “Inhibition of LPO generation” value was “significantly inhibited LPO generation”. Moreover, the “ROS scavenging activity (% control)” value in data set [3] (0.313 μmol/L) turned out to be 71.1 % control. In addition, in data set [3] (10 μmol/L), the anti-ROS activity result was “strong anti-ROS activity”. For the same compound, the “Antioxidant Activity (% of Control) ROS Scavenge” value in data set [3] (setting [4]) is 14.5 ± 0.7 % of Control. In data set [3] (concentration-dependency, Figure 4), this compound showed an IC50 of 954 nM.
